Reference: US8785662B2, “Anilide-based compounds for preserving wood and method of use thereof” (SDS Biotech K.K., priority 2010, dated 2014)

tested on: Fomitopsis palustris; assay: Agar plate colony growth inhibition test on Fomitopsis palustris; assay type: cell-based; settings: 0.5 ppm in potato dextrose agar, 25° C., colony diameter on the seventh day vs control
Method: Each of 1% w/v dimethylsulfoxide solution of compound A, compound B and comparative compounds 1 to 13 was prepared. A predetermined amount of the solutions diluted with dimethylsulfoxide were fully mixed in the sterilized potato dextrose agar medium, and 15 ml of the resultant medium was poured into a petri dish 90 mm in diameter and allowed to stand at room temperature. As a control, the potato dextrose agar medium added with dimethylsulfoxide only was also prepared. […] The fungi was cultivated in the petri dish at 25° C., and the diameter of the colony spread from the source of inoculum was measured on the seventh day. The growth inhibition ratio between the diameter of the test colony and that of the control was determined by the following formula as an indication of the degree of inhibition. Compounds A and B apparently had greater effects on Fomitopsis palustris compared to the compounds which had been disclosed in the past. Growth inhibition ratio (%)={(diameter of the control colony−diameter of the test colony)/diameter of the control colony}×100 [Formula 1]

Row | SMILES | Degree of inhibition on Fomitopsis palustris at 0.5 ppm
1 | CC(C)Oc1cccc(NC(=O)c2ccccc2C(F)(F)F)c1 [compound 4, 3′-isopropoxy-2-trifluoromethyl benzoic acid anilide] | ▴ (inhibition ratio of 25 to 50%)
2 | Cc1ccccc1C(=O)Nc1cccc(OC(C)C)c1 [compound 5, 3′-isopropoxy-2-methylbenzoic acid anilide] | ▴ (inhibition ratio of 25 to 50%)
3 | CCc1cccc(NC(=O)c2cc(C)oc2C)c1 [compound 2, 3′-ethyl-2,5-dimethylfuran-3-carboxylic acid anilide] | ▴ (inhibition ratio of 25 to 50%)
4 | Cc1cc(C(=O)Nc2cccc(C(C)C)c2)c(C(F)(F)F)o1 [Compound A, 3′-isopropyl-5-methyl-2-trifluoromethylfuran-3-carboxylic acid anilide] | ∘ (inhibition ratio of 75% or more)
5 | Cc1ncsc1C(=O)Nc1cccc(C(C)C)c1 [compound 9, 3′-isopropyl-4-methylthiazole-5-carboxylic acid anilide] | x (inhibition ratio of 25% or less)
6 | Cc1cccc(NC(=O)c2cc(C)oc2C)c1 [compound 3, 3′-methyl-2,5-dimethylfuran-3-carboxylic acid anilide] | x (inhibition ratio of 25% or less)
7 | Cc1cc(C(=O)Nc2cccc(C(C)C)c2)c(C)o1 [compound 1, 3′-isopropyl-2,5-dimethylfuran-3-carboxylic acid anilide] | ▴ (inhibition ratio of 25 to 50%)
8 | Cc1nc(C)c(C(=O)Nc2cccc(C(C)C)c2)s1 [compound 10, 3′-isopropyl-2,4-dimethyl-1,3-thiazole-5-carboxylic acid anilide] | Δ (inhibition ratio of 50 to 75%)
9 | Cc1cc(C(=O)Nc2cccc(OC(C)C)c2)c(C(F)(F)F)o1 [Compound B, 3′-isopropoxy-5-methyl-2-trifluoromethylfuran-3-carboxylic acid anilide] | ∘ (inhibition ratio of 75% or more)
10 | CC(C)c1cccc(NC(=O)c2cn(C)nc2C(F)(F)F)c1 [compound 13, 3′-isopropyl-1-methyl-3-trifluoromethylpyrazole-4-carboxylic acid anilide] | ▴ (inhibition ratio of 25 to 50%)
11 | Cc1ccccc1C(=O)Nc1cccc(C(C)C)c1 [compound 6, 3′-isopropyl-2-methylbenzoic acid anilide] | ▴ (inhibition ratio of 25 to 50%)
12 | Cc1nc(C(F)(F)F)c(C(=O)Nc2cccc(C(C)C)c2)s1 [compound 11, 3′-isopropyl-2-methyl-4-trifluoromethyl-1,3-thiazole-5-carboxylic acid anilide] | ▴ (inhibition ratio of 25 to 50%)
13 | Cc1cc(C(=O)Nc2cccc(C(C)C)c2)c(C)[nH]1 [compound 12, 3′-isopropyl-2,5-dimethylpyrrole-3-carboxylic acid anilide] | x (inhibition ratio of 25% or less)
14 | CC(C)c1cccc(NC(=O)c2ccoc2)c1 [compound 7, 3′-isopropyl-3-furancarboxylic acid anilide] | x (inhibition ratio of 25% or less)
15 | Cc1occc1C(=O)Nc1cccc(C(C)C)c1 [compound 8, 3′-isopropyl-2-methylfuran-3-carboxylic acid anilide] | ▴ (inhibition ratio of 25 to 50%)

tested on: Trametes versicolor; assay: Agar plate colony growth inhibition test on Trametes versicolor, single compounds and mixtures with triazoles (Colby); assay type: cell-based; settings: single compound 0.2 ppm, potato dextrose agar, 25° C., seventh day
Method: Each of 1% w/v dimethylsulfoxide solution of compound A, compound B, cyproconazole (manufactured by Wako Pure Chemical Industries, Ltd.), epoxyconazole (manufactured by Wako Pure Chemical Industries, Ltd.) and tetraconazole (manufactured by Wako Pure Chemical Industries, Ltd.) was prepared. The solutions diluted with dimethylsulfoxide were fully mixed in the sterilized potate dextrose agar medium, and 15 ml of the resultant medium was poured into a petri dish 90 mm in diameter and allowed to stand at room temperature. As a control, the potate dextrose agar medium added with dimethylsulfoxide only was also prepared. After the medium was solidified, the mycelia was scooped with the medium from the colony of Trametes versicolor as being a typical wood-decaying fungi, which had been cultivated in advance, using a cork bailer 5 mm in diameter; and inoculated in the center of the test medium. The fungi was cultivated in the petri dish at 25° C., and the diameter of the colony spread from the source of inoculum was measured on the seventh day. The growth inhibition ratio by comparing the diameter of the test colony to that of the control was determined by the above-mentioned formula as an indication of the actual measured growth inhibition ratio. The theoretical efficacy ratio of the mixture of the active ingredients (i.e. theoretical growth inhibition ratio) was determined using the following Colby's formula (R. S. Colby, Weeds 15, 20-22 (1967)) to thereby be compared with the actual-measured efficacy ratio ([…]). […] Colby's formula: E=x+y−x·y/100 [Formula 2] E: theoretical efficacy ratio (theoretical growth inhibition ratio) represented by the ratio (%) to the control when the mixture of active compound B (concentration b) and C (concentration c) was used. x: efficacy ratio (growth inhibition ratio) represented by the ratio (%) to the control when active compound B was used at a concentration of b. y: efficacy ratio (growth inhibition ratio) represented by the ratio (%) to the control when active compound C was used at a concentration of c.

Row | SMILES | Actual measured growth inhibition ratio (%)
16 | Fc1ccc([C@]2(Cn3cncn3)O[C@H]2c2ccccc2Cl)cc1 (racemic) [Epoxiconazole, epoxyconazole] | 24
17 | FC(F)C(F)(F)OCC(Cn1cncn1)c1ccc(Cl)cc1Cl (centres unmarked) [Tetraconazole, tetraconazole] | 25
18 | CC(C1CC1)C(O)(Cn1cncn1)c1ccc(Cl)cc1 (centres unmarked) [cyproconazole] | 33
19 | Cc1cc(C(=O)Nc2cccc(C(C)C)c2)c(C(F)(F)F)o1 [Compound A, 3′-isopropyl-5-methyl-2-trifluoromethylfuran-3-carboxylic acid anilide] | 49
20 | Cc1cc(C(=O)Nc2cccc(OC(C)C)c2)c(C(F)(F)F)o1 [Compound B, 3′-isopropoxy-5-methyl-2-trifluoromethylfuran-3-carboxylic acid anilide] | 44
